The text below walks through data of patent publication US7148009B2, “Cancer drug screen based on cell cycle uncoupling” (The Johns Hopkins University, priority 1996, dated 2006).

Experiment [1] concerns HCT116 cells without (−/−) p21 genes. Description: Apoptosis after drug treatment (phase contrast, H33258 staining, TUNEL), p21-deficient cells. Type of experiment: cell-based, human. As to the method: (§1) HCT116 cells with (+/+) or without (−/−) p21 genes were generated by homologous recombination. Logarithmically-growing cells in McCoy's 5A medium with 10% fetal calf serum were treated with Adriamycin (0.2 ug/ml) for 90 hours. In FIG. 1b, the adherent cells were harvested by trypsinization and combined with cells floating in the media. After washing with Hanks Buffered Saline (HBS; Life Technologies), cells were resuspended in 40 ul HBS and added to 360 ul of a solution containing 0.7% NP-40, 4.7% formaldehyde and 11 ug/ml H133258 in phosphate buffered saline (PBS). Cells were then viewed under UV excitation and photographed with a Nikon Labophot microscope. In FIG. 1c, adherent cells were fixed in 1% formaldehyde, then incubated in the presence of exogenous terminal transferase and biotin-11-dUTP as previously described^7. Labeled cells were detected by immunoperoxidase staining (Vector).
Cells were grown, fixed, and stained as described in Example 1. Irradiation was delivered at 1 Gy/minute using a ^137Cs source. Apoptotic cells were recognized as condensed, punctate nuclei (examples in FIG. 1d) or ghosts with faintly stained, degrading nuclei. […] The error bars represent the Poisson standard deviation determined by taking the square root of counted events and converting it to percent abundance. All counting was done in a blinded fashion. The (+/−) cells contained one normal p21 allele and one allele deleted by homologous recombination^5.

The test system of experiment [2] is HCT116 p21−/− cells. Description: Cell cycle analysis by flow cytometry, p21-deficient cells. The note with it: Adriamycin 0.2 ug/ml. On the technique in general: In flow cytometry, cells or beads pass a laser one at a time.
Experiment [3] deals with HCT116 p21+/+ cells. The experiment is described as follows: Cell cycle analysis by flow cytometry, parental cells. Particulars: Adriamycin 0.2 ug/ml.
Experiment [4] concerns HCT116 cells with (+/+) p21 genes. The experiment is described as follows: Apoptosis after drug treatment (phase contrast, H33258 staining, TUNEL), parental cells. Particulars: for cell fate (apoptosis) by phase contrast microscopy and H33258 staining: etoposide 5 ug/ml, camptothecan 0.1 ug/ml, time course. Type of experiment: cell-based, human. As to the method: as §1
(§2) Cells were grown, fixed, and stained as described in Example 1. Irradiation was delivered at 1 Gy/minute using a ^137Cs source. Apoptotic cells were recognized as condensed, punctate nuclei (examples in FIG. 1d) or ghosts with faintly stained, degrading nuclei. At least 200 cells were counted for each time point, and the experiment was repeated with results virtually identical to those shown. The error bars represent the Poisson standard deviation determined by taking the square root of counted events and converting it to percent abundance. All counting was done in a blinded fashion. The (+/−) cells contained one normal p21 allele and one allele deleted by homologous recombination^5.

Experiment [5] deals with HCT116 (+/−) cells, one normal p21 allele and one deleted. Description: Apoptosis after drug treatment, heterozygous cells. It is filed as cell-based, human. The note with it: Adriamycin 0.2 ug/ml, etoposide 5 ug/ml, camptothecan 0.1 ug/ml. As to the method: as §1, §2
Setting [6] is: p21−/− cells, Adriamycin 0.2 ug/ml, 90 hours.
Setting [7] is: longer treatments (beyond 30 hours).

Consider `COc1cccc2c1C(=O)c1c(O)c3c(c(O)c1C2=O)C[C@@](O)(C(=O)CO)C[C@@H]3O[C@H]1C[C@H](N)[C@H](O)[C@H](C)O1` [Adriamycin], for which the “response in a second, independently isolated p21−/− clone” value in experiment [1] (Adriamycin 0.2 ug/ml, time course of apoptosis) is “identical”. Further, in experiment [1] (setting [6]), the “TUNEL staining of DNA breaks characteristic of apoptosis” value is “stained intensely by TUNEL”; the “cell morphology, phase contrast microscopy” value was “shrank, rounded, and detached from the dish, suggesting apoptosis”; the “nuclear morphology after H33258 staining” value is “classic condensed and punctate nuclear morphology”. Also, the “cell cycle distribution by flow cytometry” value in experiment [2] (30 hours of exposure) is “a nearly pure population of G2-arrested cells was observed”. For the same molecule, the “DNA content by flow cytometry” value in experiment [2] (setting [7]) was “began to accumulate DNA in excess of 4C, then died”. The “cell cycle distribution by flow cytometry” value in experiment [3] (30 hours of exposure) is “blocked in G1 and G2 phases, with few cells in S”. Further, the flow cytometry profile entry in experiment [3] (setting [7]) is on record as “remained largely unchanged”. Further, in experiment [4] (Adriamycin 0.2 ug/ml, 90 hours), the “cell morphology, phase contrast microscopy” value is “remained attached to the plate and appeared morphologically normal”; the “nuclear morphology after H33258 staining” value was “homogeneous and round”. Besides, the “kinetics of apoptosis compared with parental cells” value in experiment [5] is listed as “behaved similarly to the parental cells”.
Turning to `CC[C@@]1(O)C(=O)OCc2c1cc1n(c2=O)Cc2cc3ccccc3nc2-1` [camptothecan], the “cell fate (apoptosis) by phase contrast microscopy and H33258 staining” value in experiment [4] is “eventually underwent apoptosis, but this was significantly delayed compared to p21-deficient cells”. The “kinetics of apoptosis compared with parental cells” value in experiment [5] is “revealed a heterozygote effect”.
Consider `COc1cc([C@@H]2c3cc4c(cc3[C@@H](O[C@@H]3O[C@@H]5CO[C@@H](C)O[C@H]5[C@H](O)[C@H]3O)[C@H]3COC(=O)[C@H]23)OCO4)cc(OC)c1O` [etoposide], for which the “cell fate (apoptosis) by phase contrast microscopy and H33258 staining” value was “died” in experiment [1] (p21−/− cells, etoposide 5 ug/ml, time course) and “remained healthy” in experiment [4]. In experiment [5], the “kinetics of apoptosis compared with parental cells” value is “behaved similarly to the parental cells”.
